Experimental findings from patent publication US9776972B2, “Pyrazole derivatives as arginine methyltransferase inhibitors and uses thereof” (priority 2013, dated 2017) are described below.

Each structure is given as a SMILES string. Where a name gives a salt, the structure may show the parent alone. Read-outs that look alike come from different tables or passages of the source.

For one test, the target named is T1, human PRMT6 (Homo sapiens, UniProt Q96LA8).
T1 construct: Flag-PRMT6-His; made in house; host or cells: HEK 293F cells (BacMam baculovirus)
Description: PRMT6 Biochemical Assay (3H-SAM Flashplate, peptide substrate). An outline of the steps:
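Methylation of a biotin-tagged H4 (36-50) peptide by ³H-SAM was quantified by streptavidin Flashplate capture and scintillation counts (dpm/cpm). Before SAM/peptide addition, Flag-PRMT6-His was preincubated with compound for 30 min at room temperature in Bicine buffer, pH 7.6.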

The target of the next test is T2, human PRMT1 (Homo sapiens, UniProt Q99873).
T2 construct: GST-tagged PRMT1; made in house; host or cells: High Five insect cells (baculovirus)
Description: PRMT1 Biochemical Assay (3H-SAM Flashplate, peptide substrate). An outline of the steps: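 GST-tagged PRMT1 from baculovirus-infected cells, preincubated with compounds 30 min at room temperature in 20 mM Bicine pH 7.6, 1 mM TCEP, 0.005% BSG, 0.002% Tween 20. Reaction started with ³H-SAM plus biotinylated peptide, stopped with 300 µM cold SAM.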

Where [1] appears, read: Biochemical IC50 PRMT6, single experiment or average of multiple experiments.
The mark [2] stands for this setting: single experiment or average of multiple experiments.

T2 sequence (Q99873 with tags, fused parts or gaps): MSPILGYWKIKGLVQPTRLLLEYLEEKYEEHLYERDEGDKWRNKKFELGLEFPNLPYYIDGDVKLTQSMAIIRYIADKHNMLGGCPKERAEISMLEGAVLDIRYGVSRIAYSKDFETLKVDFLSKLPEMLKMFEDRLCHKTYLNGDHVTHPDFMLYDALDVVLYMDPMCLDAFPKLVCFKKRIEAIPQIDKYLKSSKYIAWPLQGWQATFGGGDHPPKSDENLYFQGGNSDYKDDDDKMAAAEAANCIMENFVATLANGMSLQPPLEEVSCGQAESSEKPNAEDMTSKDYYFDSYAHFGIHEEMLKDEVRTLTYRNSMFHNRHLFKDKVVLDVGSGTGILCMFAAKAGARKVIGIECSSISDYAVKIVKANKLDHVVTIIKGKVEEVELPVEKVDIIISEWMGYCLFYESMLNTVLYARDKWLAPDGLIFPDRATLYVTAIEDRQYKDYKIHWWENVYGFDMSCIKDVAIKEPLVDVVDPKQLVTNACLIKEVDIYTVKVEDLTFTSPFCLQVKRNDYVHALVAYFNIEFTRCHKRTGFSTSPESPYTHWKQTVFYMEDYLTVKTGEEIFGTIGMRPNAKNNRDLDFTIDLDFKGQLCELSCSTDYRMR
T1 sequence (Q96LA8 with tags, fused parts or gaps): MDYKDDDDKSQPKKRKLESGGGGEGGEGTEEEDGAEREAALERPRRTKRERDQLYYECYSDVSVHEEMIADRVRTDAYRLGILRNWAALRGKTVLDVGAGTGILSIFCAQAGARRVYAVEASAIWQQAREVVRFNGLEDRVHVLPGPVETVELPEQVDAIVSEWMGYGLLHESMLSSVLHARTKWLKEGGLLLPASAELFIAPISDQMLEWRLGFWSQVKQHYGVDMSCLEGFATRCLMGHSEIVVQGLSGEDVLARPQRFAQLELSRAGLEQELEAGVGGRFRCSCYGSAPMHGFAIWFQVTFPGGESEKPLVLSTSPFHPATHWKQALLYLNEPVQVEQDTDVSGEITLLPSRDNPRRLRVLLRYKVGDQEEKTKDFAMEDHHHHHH

A word on the IC50: it is the concentration needed to halve the response being measured. Turning to `CN(CCN)Cc1c[nH]nc1-c1ccc(C(F)(F)F)c(F)c1` [Compound 141], the figures for the IC50 on human PRMT6 (setting [1]) and against human PRMT1 (setting [2]) were 7.79 nM and 8.16 nM, respectively.

Turning to `COc1cc(-c2n[nH]cc2CN(C)CCN)ccc1F` [Compound 142], the IC50 against human PRMT6 (setting [1]) was 16.2 nM; on human PRMT1 (setting [2]) it was 29.7 nM.

For `CCN(CC)C(=O)c1ccc(-c2n[nH]cc2CN(C)CCN)cc1` [Compound 143], the IC50 came to 107 nM against human PRMT6 (setting [1]) and 116 nM on human PRMT1 (setting [2]).

Turning to `CC(C)Oc1ccc(-c2c[nH]nc2CN(C)CCN)cc1F` [Compound 144], the IC50 against human PRMT6 (setting [1]) came to 49.1 nM; on human PRMT1 (setting [2]), 5.79 nM.

With `CNCCN(C)Cc1cnn(C)c1-c1ccc(OC(C)C)cc1` [Compound 244, hydrochloride], the IC50 against human PRMT6 (Biochemical IC50 PRMT6) is less than 100 nM; against human PRMT6 (setting [1]) it was 45.1 nM; against human PRMT1, less than 100 nM; against human PRMT1 (setting [2]), 8.68 nM.

Take `CNCCN(C)Cc1c[nH]nc1-c1ccc(OC2COC2)cc1` [Compound 283]: the IC50 against human PRMT6 (Biochemical IC50 PRMT6) was less than 100 nM; against human PRMT6 (setting [1]), 25.6 nM; against human PRMT1, less than 100 nM; at human PRMT1 (setting [2]), 6.65 nM.

As to `CNCCN(C)Cc1c[nH]nc1-c1ccc(OCC2CCOCC2)cc1` [Compound 284], the IC50 on human PRMT6 (Biochemical IC50 PRMT6) was less than 100 nM; against human PRMT6 (setting [1]) it was 40.5 nM; at human PRMT1, less than 100 nM; against human PRMT1 (setting [2]) it was 13.3 nM.

For the molecule `CNCCN(C)Cc1c[nH]nc1-c1ccc(OCC2CCOC2)cc1` (centres unmarked) [Compound 285], the IC50 against human PRMT6 (Biochemical IC50 PRMT6) is less than 100 nM; on human PRMT6 (setting [1]) it was 33.2 nM; against human PRMT1, less than 100 nM; on human PRMT1 (setting [2]) it was 14.8 nM.

As for `CNCCN(C)Cc1c[nH]nc1-c1ccc(OC(CO)C(C)C)cc1` (centres unmarked) [Compound 286], the concentration for half-maximal inhibition (IC50) against human PRMT6 (Biochemical IC50 PRMT6) is less than 100 nM; at human PRMT6 (single experiment or average of multiple experiments, read-out: Biochemical IC50 PRMT6), 32.1 nM; on human PRMT1, less than 100 nM; on human PRMT1 (setting [2]), 26.5 nM.

On to `CNCCN(C)Cc1c[nH]nc1-c1ccc(OCC2CC2)cc1` [Compound 288], for which the IC50 is less than 100 nM against human PRMT6 (Biochemical IC50 PRMT6), 14.3 nM against human PRMT6 (setting [1]), less than 100 nM on human PRMT1 and 8.97 nM on human PRMT1 (setting [2]).

`CNCCN(C)Cc1c[nH]nc1-c1ccc(OCCOC)cc1` [Compound 289]: the IC50 at human PRMT6 (Biochemical IC50 PRMT6) is less than 100 nM; at human PRMT6 (setting [1]), 36.5 nM; at human PRMT1 it was less than 100 nM; at human PRMT1 (setting [2]), 21.1 nM.

With `CCC(CC)Oc1ccc(-c2n[nH]cc2CN(C)CCNC)cc1` [Compound 290], the IC50 against human PRMT6 (Biochemical IC50 PRMT6) is less than 100 nM; on human PRMT6 (setting [1]), 11.5 nM; against human PRMT1 it was less than 100 nM; against human PRMT1 (setting [2]), 8.28 nM.

For `CNCCN(C)Cc1c[nH]nc1-c1ccc(OC2CCOCC2)c(F)c1` [Compound 291], the IC50 against human PRMT6 (Biochemical IC50 PRMT6) was less than 100 nM; at human PRMT6 (setting [1]), 27.7 nM; against human PRMT1, less than 100 nM; on human PRMT1 (setting [2]), 15.6 nM.

As for `CNCCN(C)Cc1c[nH]nc1-c1ccc(OC2CCOCC2)c(Cl)c1` [Compound 292], the IC50 at human PRMT6 (Biochemical IC50 PRMT6) is less than 100 nM; at human PRMT6 (setting [1]), 83.2 nM; on human PRMT1, less than 100 nM; against human PRMT1 (setting [2]), 27.3 nM.

Take `CNCCN(C)Cc1c[nH]nc1-c1ccc(OC2CC2)cc1` [Compound 293]: the IC50 at human PRMT6 (Biochemical IC50 PRMT6) was less than 100 nM; against human PRMT6 (setting [1]) it was 28.8 nM; against human PRMT1, less than 100 nM; at human PRMT1 (setting [2]), 13.5 nM.

In the case of `CNCCN(C)Cc1c[nH]nc1-c1ccc(NC(C)C)cc1` [Compound 295], the IC50 was less than 100 nM against human PRMT6 (Biochemical IC50 PRMT6), 64.9 nM against human PRMT6 (setting [1]), less than 100 nM against human PRMT1 and 28.7 nM against human PRMT1 (setting [2]).

`CNCCN(C)Cc1c[nH]nc1-c1ccc(NCC(C)C)cc1` [Compound 296]: the IC50 was less than 100 nM against human PRMT6 (Biochemical IC50 PRMT6), 33 nM against human PRMT6 (setting [1]), less than 100 nM at human PRMT1 and 28.8 nM against human PRMT1 (setting [2]).

In the case of `CNCCN(C)Cc1c[nH]nc1-c1ccc(Oc2ccccc2)c(F)c1` [Compound 297], the IC50 against human PRMT6 (Biochemical IC50 PRMT6) was less than 100 nM; against human PRMT6 (setting [1]), 12.1 nM; on human PRMT1 it was less than 100 nM; against human PRMT1 (setting [2]), 3.37 nM.

As to `CNCCN(C)Cc1c[nH]nc1-c1ccc(OCC2CC2)c(F)c1` [Compound 298], the IC50 on human PRMT6 (Biochemical IC50 PRMT6) is less than 100 nM; against human PRMT6 (setting [1]), 26.9 nM; against human PRMT1, less than 100 nM; at human PRMT1 (setting [2]), 7.87 nM.

As to `CNCCN(C)Cc1c[nH]nc1-c1ccc(OC2CCC(O)CC2)cc1` (centres unmarked) [Compound 299], the IC50 against human PRMT6 (Biochemical IC50 PRMT6) is less than 100 nM; at human PRMT6 (setting [1]), 15.9 nM; against human PRMT1, less than 100 nM; against human PRMT1 (setting [2]), 19.8 nM.

`CNCCN(C)Cc1c[nH]nc1-c1ccc(N(C)C(C)C)cc1` [Compound 300]: the half-inhibitory concentration (IC50) on human PRMT6 (Biochemical IC50 PRMT6) was 101 to 1000 nM; against human PRMT6 (setting [1]), 177 nM; at human PRMT1 it was less than 100 nM; against human PRMT1 (setting [2]) it was 27.9 nM.

`CNCCN(C)Cc1c[nH]nc1-c1ccc(OC2CC2)c(F)c1` [Compound 301]: the IC50 against human PRMT6 (Biochemical IC50 PRMT6) was less than 100 nM; against human PRMT6 (setting [1]), 25.3 nM; at human PRMT1, less than 100 nM; against human PRMT1 (setting [2]), 6.43 nM.

As for `CNCCN(C)Cc1c[nH]nc1-c1ccc(Oc2ncccn2)cc1` [Compound 302], the IC50 is less than 100 nM against human PRMT6 (Biochemical IC50 PRMT6), 49.7 nM against human PRMT6 (setting [1]), less than 100 nM at human PRMT1 and 33.4 nM against human PRMT1 (setting [2]).

For `CNCCN(C)Cc1c[nH]nc1-c1ccc(Oc2cncnc2)cc1` [Compound 303], the half-maximal inhibitory concentration (IC50) against human PRMT6 (Biochemical IC50 PRMT6) was less than 100 nM; against human PRMT6 (setting [1]), 24 nM; on human PRMT1, less than 100 nM; on human PRMT1 (setting [2]) it was 27.9 nM.

`CNCCN(C)Cc1c[nH]nc1-c1ccc(OC2CCC2)cc1` [Compound 304]: the IC50 is less than 100 nM against human PRMT6 (Biochemical IC50 PRMT6), 24.1 nM against human PRMT6 (setting [1]), less than 100 nM against human PRMT1 and 6.59 nM on human PRMT1 (setting [2]).

For the molecule `CNCCN(C)Cc1c[nH]nc1-c1ccc(OC2CCC2)c(F)c1` [Compound 305], the IC50 on human PRMT6 (Biochemical IC50 PRMT6) is less than 100 nM; on human PRMT6 (setting [1]) it was 27.6 nM; against human PRMT1 it was less than 100 nM; on human PRMT1 (setting [2]) it was 6.36 nM.

Turning to `CNCCN(C)Cc1c[nH]nc1-c1ccc(OCC(C)C)cc1` [Compound 306], the IC50 against human PRMT6 (Biochemical IC50 PRMT6) is less than 100 nM; against human PRMT6 (setting [1]), 23.3 nM; on human PRMT1, less than 100 nM; at human PRMT1 (setting [2]), 7.1 nM.

Regarding `CNCCN(C)Cc1c[nH]nc1-c1ccc(OCC2CCC2)cc1` [Compound 307], the IC50 against human PRMT6 (Biochemical IC50 PRMT6) was less than 100 nM; against human PRMT6 (setting [1]) it was 19.7 nM; against human PRMT1, less than 100 nM; against human PRMT1 (setting [2]), 5.89 nM.

In the case of `CC[C@@H](C)Oc1ccc(-c2n[nH]cc2CN(C)CCNC)cc1` [Compound 308], the IC50 was less than 100 nM on human PRMT6 (Biochemical IC50 PRMT6), 13.1 nM against human PRMT6 (setting [1]), less than 100 nM at human PRMT1 and 7.07 nM on human PRMT1 (setting [2]).

As for `CC[C@H](C)Oc1ccc(-c2n[nH]cc2CN(C)CCNC)cc1` [Compound 309], the IC50 is less than 100 nM against human PRMT6 (Biochemical IC50 PRMT6), 15.2 nM against human PRMT6 (setting [1]), less than 100 nM against human PRMT1 and 6.7 nM at human PRMT1 (setting [2]).

On to `CCC(COC)Oc1ccc(-c2n[nH]cc2CN(C)CCNC)cc1` (centres unmarked) [Compound 310], for which the IC50 against human PRMT6 (Biochemical IC50 PRMT6) is less than 100 nM; against human PRMT6 (setting [1]), 32.4 nM; against human PRMT1 it was less than 100 nM; at human PRMT1 (setting [2]), 14.5 nM.

With `CNCCN(C)Cc1c[nH]nc1-c1ccc(OC(COC)C(C)C)cc1` (centres unmarked) [Compound 311], the IC50 against human PRMT6 (Biochemical IC50 PRMT6) is less than 100 nM; at human PRMT6 (setting [1]) it was 50.3 nM; on human PRMT1 it was less than 100 nM; on human PRMT1 (setting [2]), 21.6 nM.

Consider `CNCCN(C)Cc1c[nH]nc1-c1ccc(Oc2ccncn2)cc1` [Compound 312], for which the IC50 was less than 100 nM on human PRMT6 (Biochemical IC50 PRMT6), 19.5 nM at human PRMT6 (setting [1]), less than 100 nM at human PRMT1 and 11.6 nM against human PRMT1 (setting [2]).

As to `CNCCN(C)Cc1c[nH]nc1-c1ccc(C(C)(C)COC)cc1` [Compound 313], the IC50 was 101 to 1000 nM on human PRMT6 (Biochemical IC50 PRMT6), 113 nM against human PRMT6 (setting [1]), less than 100 nM against human PRMT1 and 34.9 nM on human PRMT1 (setting [2]).

On to `CNCCN(C)Cc1c[nH]nc1-c1ccc(OC(COC)CC(C)C)cc1` (centres unmarked) [Compound 314], for which the IC50 is less than 100 nM against human PRMT6 (Biochemical IC50 PRMT6), 38.6 nM against human PRMT6 (setting [1]), less than 100 nM at human PRMT1 and 18.2 nM at human PRMT1 (setting [2]).

In the case of `CNCCN(C)Cc1c[nH]nc1-c1ccc(OC2CC(OC)C2)cc1` (centres unmarked) [Compound 315], the IC50 on human PRMT6 (Biochemical IC50 PRMT6) was less than 100 nM; against human PRMT6 (setting [1]) it was 10.6 nM; on human PRMT1 it was less than 100 nM; at human PRMT1 (setting [2]) it was 23.5 nM.

For `CNCCN(C)Cc1c[nH]nc1-c1ccc(OC(COC)COC)cc1` [Compound 316], the IC50 is less than 100 nM on human PRMT6 (Biochemical IC50 PRMT6), 96.7 nM at human PRMT6 (setting [1]), less than 100 nM at human PRMT1 and 17.5 nM on human PRMT1 (setting [2]).
